This is an account of results in patent US10596109B2 (Abela Pharmaceuticals, Inc., priority 2009, dated 2020).

Series [1] deals with S. pyogenes. The series is described as follows: Bacterial viability by bioluminescent ATP assay, 18 hours culture. The conditions noted are these: MSM alone at 8%.
For series [2], the system named is S. pneumonia. Briefly: Bacterial viability by bioluminescent ATP assay, 7 hours culture.
Series [3] relates to S. pneumonia. The settings on record: Streptococcus pneumonia, 7 h.
Series [4] relates to S. pyogenes. The settings on record: Streptococcus pyogenes, 18 h.

Where two headings read alike, the source gives them in different places.

On to `CS(C)(=O)=O` [MSM, Methylsulfonylmethane], for which, in the series on S. pyogenes [1], the “Reduction in bacterial viability (estimated)” value is on record as “approximately 89%”. Also, the “Reduction in bacterial viability” value in the series with S. pneumonia [2] (MSM 5% alone) is given as approximately 5%. Moreover, the S. pneumonia viability with S. pneumonia [2] (MSM 10%) is on record as 48.57%; in the series with S. pneumonia [2] (MSM 20%), 39.08%.
In the case of `C[S+](C)[O-]` [DMSO, Dimethyl sulfoxide], the values for the S. pneumonia viability in the series with S. pneumonia [3] (5 %) and in the series on S. pneumonia [3] (10 %) were 75.45% and 40.18%, respectively. For the same compound, the “Reduction in bacterial viability” value in the series with S. pneumonia [2] (DMSO 5% alone) was “approximately 25%”. Also, the S. pyogenes viability with S. pyogenes [4] (0.63 %) came to 100%; with S. pyogenes [4] (1.25 %), 100%; in the series on S. pyogenes [4] (10 %) it was 14.50%; in the series on S. pyogenes [4] (20 %), 5.14%; in the series with S. pyogenes [4] ([…]) it was 100%.
